Holding throughout (type): biochemical
The target of one test is Cathepsin S (Homo sapiens, UniProt P25774). Put plainly: Cathepsin S enzymatic assay (assay 1). Conditions: human recombinant enzyme, KQKLR-AMC substrate, pH 6.5. How it is done: Assay 1) Determination of Falcipain-2, Falcipain-3, Vivapain-2, Cathepsin K Cathepsin S, Cathepsin L, and Cathepsin B Proteolytic Catalytic Activity
Assays for Falcipain-2, Falcipain-3, and Vivapain-2 are carried out with parasitic recombinant enzymes. Cathepsins K, S, L, and B are carried out with human recombinant enzymes. Standard assay conditions for the determination of kinetic constants used a fluorogenic peptide substrate, typically H-D-VLR-AFC (Falcipain-2, Falcipain-3, Vivapain-2), Z-FR-AFC (Cathepsin K, L, B), or KQKLR-AMC (Cathepsin S) and are determined in 100 mM sodium acetate, pH 5.5, containing 10 mM DTT and 0.5 mM CHAPS (Falcipain-2, Falcipain-3, Vivapain-2), and 100 mM sodium acetate, pH 5.5, containing 5 mM L-cysteine, 1 mM CHAPS and 5 mM EDTA (Cathepsin K, L, B), or 50 mM MES, pH 6.5, containing 0.5 mM CHAPS, 10 mM L-CYS, 5 mM EDTA (Cathepsin S). Stock substrate solutions are prepared at 20 mM in DMSO. The activity assays contained 30 uM substrate (Falcipain-2, Falcipain-3, Vivapain-2), 20 uM substrate (Cathepsin K), 25 uM substrate (Cathepsin B), 5 uM substrate (Cathepsin L), and 30 uM substrate (Cathepsin S). All assays contained 1% DMSO. […] All assays are conducted at ambient temperature as end point assays being quenched after 60 minutes with the exception of Cathepsin S at 90 minutes, with 16.6 uM E-64 in 1% DMSO. Product formation (AFC or AMC) is determined from fluorescence (excitation at 405 nm; emission at 530 nm, AFC, or excitation at 360 nm; emission at 460 nm, AMC) monitored with a LJL Aquest (Molecular Devices) fluorescent plate reader. In the case of kinetic reads (used in mechanism of action studies), the reaction is not quenched but is read in the plate reader every 3 minutes for approximately 90 minutes. In addition, the mechanism of action studies for Falcipain-2 utilize Z-LR-AMC as the substrate. Product formation is determined from the fluorescence of AMC, measured with a LJL Acquest (Molecular Devices) fluorescent plate reader (excitation at 360 nm; emission at 460 nm).
Potential inhibitors are evaluated using the quenched read (endpoint) method. Assays are carried out in the presence of variable concentrations of test compound. Reactions are initiated by addition of enzyme and substrate to wells containing inhibitor stamped in 100% DMSO. For endpoint assays, the reaction is quenched with the addition of E64. Dose response data is fit to an IC50 curve with preset fitting tools according to equation 1:
y=a+(b−a)/(1+(10^x/10^c)^d) (1)
where y is the response at a particular inhibitor concentration x, a is the minimum response value, b is the maximum response value, c is the IC50, and d is the slope of the IC50 curve. Assuming the compound is a competitive inhibitor, the apparent KI can be calculated from IC50, as shown in equation 2: […]

Another test addresses Falcipain-2 (Plasmodium falciparum, UniProt Q8I6U4). Description: Falcipain-2 enzymatic assay (assay 1). In outline: (§1)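 Recombinant parasite enzyme with 30 uM H-D-VLR-AFC in 100 mM sodium acetate pH 5.5, 10 mM DTT, 0.5 mM CHAPS, 1% DMSO, ambient temperature. Endpoint after 60 minutes, quenched with 16.6 uM E-64; AFC fluorescence (ex 405/em 530). IC50 from four-parameter fit, apparent KI assuming competitive inhibition.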

The next test has as its target Falcipain-3 (Plasmodium falciparum, UniProt Q8IIL0). Description: Falcipain-3 enzymatic assay (assay 1). An outline of the steps:
as §1

Structures can show the parent of a compound that is named as a salt. Where only a bound is given, the exact number is not on record here.

Sequence of Cathepsin S (P25774 115-331): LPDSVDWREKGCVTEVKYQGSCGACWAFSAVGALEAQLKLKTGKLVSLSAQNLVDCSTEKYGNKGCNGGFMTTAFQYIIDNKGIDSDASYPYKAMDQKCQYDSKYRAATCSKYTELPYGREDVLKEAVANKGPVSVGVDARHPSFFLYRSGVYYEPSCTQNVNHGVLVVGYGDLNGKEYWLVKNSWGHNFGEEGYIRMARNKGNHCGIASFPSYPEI
Sequence of Falcipain-2 (Q8I6U4 244-484): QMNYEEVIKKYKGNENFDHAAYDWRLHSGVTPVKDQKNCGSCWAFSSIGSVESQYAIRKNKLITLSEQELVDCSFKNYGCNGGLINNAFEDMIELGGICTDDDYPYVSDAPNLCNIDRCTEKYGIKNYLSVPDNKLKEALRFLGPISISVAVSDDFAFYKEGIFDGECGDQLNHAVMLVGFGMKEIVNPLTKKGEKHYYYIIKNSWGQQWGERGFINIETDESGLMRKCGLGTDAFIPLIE
Sequence of Falcipain-3 (Q8IIL0 243-492): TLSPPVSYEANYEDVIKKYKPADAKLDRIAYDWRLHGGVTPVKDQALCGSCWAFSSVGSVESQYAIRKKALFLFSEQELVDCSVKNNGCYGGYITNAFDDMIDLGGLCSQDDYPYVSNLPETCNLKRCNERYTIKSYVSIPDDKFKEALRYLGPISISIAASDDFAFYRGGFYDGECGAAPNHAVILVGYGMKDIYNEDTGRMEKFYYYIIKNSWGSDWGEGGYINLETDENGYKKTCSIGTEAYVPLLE

For `CCCN(C)Cc1ccc(C(=O)NN(c2nc(C#N)ncc2Cl)C2CCCC2)cc1` [Example 55, N′-(5-chloro-2-cyano-4-pyrimidinyl)-N′-cyclopentyl-4-{[methyl(propyl)amino]methyl}benzohydrazide trifluoroacetate], the figures for the IC50 on Cathepsin S, on Falcipain-2 and on Falcipain-3 were below 200 nM, below 1 nM and 2.5 to 15 nM, respectively.
As for `CCCCCCN(C)Cc1ccc(C(=O)NN(c2nc(C#N)ncc2Cl)C2CCCC2)cc1` [Example 56, N′-(5-chloro-2-cyano-4-pyrimidinyl)-N′-cyclopentyl-4-{([hexyl(methyl)amino]methyl}benzohydrazide trifluoroacetate], the IC50 is below 200 nM on Cathepsin S, below 1 nM at Falcipain-2 and 2.5 to 15 nM at Falcipain-3.
Turning to `CCCCN(C)Cc1ccc(C(=O)NN(c2nc(C#N)ncc2Cl)C2CCCC2)cc1` [Example 57, 4-{[butyl(methyl)amino]methyl}-N′-(5-chloro-2-cyano-4-pyrimidinyl)-N′-cyclopentylbenzohydrazide trifluoroacetate], the IC50 is below 200 nM at Cathepsin S, below 1 nM on Falcipain-2 and 2.5 to 15 nM against Falcipain-3.
On the same counts, the results for `CN(CCC(O)c1ccccc1)Cc1ccc(C(=O)NN(c2nc(C#N)ncc2Cl)C2CCCC2)cc1` (stereo not drawn) [Example 59, N′-(5-chloro-2-cyano-4-pyrimidinyl)-N′-cyclopentyl-4-{[(3-hydroxy-3-phenylpropyl)(methyl)amino]methyl}benzohydrazide trifluoroacetate] are below 200 nM, below 1 nM and 1 to 2.5 nM.
Take `CN(CC(=O)N(C)C)Cc1ccc(C(=O)NN(c2nc(C#N)ncc2Cl)C2CCCC2)cc1` [Example 60, N^2-[(4-{[2-(5-chloro-2-cyano-4-pyrimidinyl)-2-cyclopentylhydrazino]carbonyl}phenyl)methyl]-N^1,N^1,N^2-trimethylglycinamide trifluoroacetate]: the IC50 on Cathepsin S was below 200 nM; on Falcipain-2, below 1 nM; on Falcipain-3, 2.5 to 15 nM.
For `CN(CCC1OCCO1)Cc1ccc(C(=O)NN(c2nc(C#N)ncc2Cl)C2CCCC2)cc1` [Example 61, N′-(5-chloro-2-cyano-4-pyrimidinyl)-N′-cyclopentyl-4-{[[2-(1,3-dioxolan-2-yl)ethyl](methyl)amino]methyl}benzohydrazide trifluoroacetate], the IC50 on Cathepsin S is below 200 nM; at Falcipain-2, below 1 nM; on Falcipain-3 it was 2.5 to 15 nM.
In the case of `CN(CCc1ccccc1)Cc1ccc(C(=O)NN(c2nc(C#N)ncc2Cl)C2CCCC2)cc1` [Example 62, N′-(5-chloro-2-cyano-4-pyrimidinyl)-N′-cyclopentyl-4-{[methyl(2-phenylethyl)amino]methyl}benzohydrazide trifluoroacetate], the IC50 is below 200 nM on Cathepsin S, below 1 nM against Falcipain-2 and 2.5 to 15 nM against Falcipain-3.
Regarding `CN(CCCc1ccccc1)Cc1ccc(C(=O)NN(c2nc(C#N)ncc2Cl)C2CCCC2)cc1` [Example 64, N′-(5-chloro-2-cyano-4-pyrimidinyl)-N′-cyclopentyl-4-{[methyl(3-phenylpropyl)amino]methyl}benzohydrazide trifluoroacetate], the IC50 at Cathepsin S was below 200 nM; against Falcipain-2, below 1 nM; against Falcipain-3 it was 2.5 to 15 nM.
In the same order, the values of `CN(Cc1ccc(C(=O)NN(c2nc(C#N)ncc2Cl)C2CCCC2)cc1)C1CCC2(CC1)OCC(C)(C)CO2` [Example 65, N′-(5-chloro-2-cyano-4-pyrimidinyl)-N′-cyclopentyl-4-{[(3,3-dimethyl-1,5-dioxaspiro[5.5]undec-9-yl)(methyl)amino]methyl}benzohydrazide trifluoroacetate] are below 200 nM, 1 to 2.5 nM and 2.5 to 15 nM.
As for `CCN(CC)Cc1ccc(C(=O)NN(c2nc(C#N)ncc2Cl)C2CCCC2)cc1` [Example 66, N′-(5-chloro-2-cyano-4-pyrimidinyl)-N′-cyclopentyl-4-[(diethylamino)methyl]benzohydrazide trifluoroacetate], the IC50 on Cathepsin S is below 200 nM; on Falcipain-2, below 1 nM; on Falcipain-3, 2.5 to 15 nM.

Usually IC50 stands for the midpoint of a concentration-inhibition curve.

The record behind these values is patent US20100009956A1, “NOVEL SUBSTITUTED PYRIMIDINES AS CYSTEINE PROTEASE INHIBITORS” (Glaxo Group Limited , a corporation, priority 2006, published 2010).
